Measured values reported in patent US20260191968A1, “PROTAC DEGRADERS OF MLLT1 AND/OR MLLT3” (DARK BLUE THERAPEUTICS LTD, priority 2024, published 2026).

What was measured:
Assay type in all cases: cell-based
MLLT1 = target: T1, MLLT1 (Homo sapiens, UniProt Q03111); test: MLLT1 degradation assay in MV4-11 cells (JESS chemiluminescent detection), three concentrations, 24 h; conditions: with respect to DMSO control
T1 construct: host or cells: MV4-11
T1 sequence (Q03111 1-559): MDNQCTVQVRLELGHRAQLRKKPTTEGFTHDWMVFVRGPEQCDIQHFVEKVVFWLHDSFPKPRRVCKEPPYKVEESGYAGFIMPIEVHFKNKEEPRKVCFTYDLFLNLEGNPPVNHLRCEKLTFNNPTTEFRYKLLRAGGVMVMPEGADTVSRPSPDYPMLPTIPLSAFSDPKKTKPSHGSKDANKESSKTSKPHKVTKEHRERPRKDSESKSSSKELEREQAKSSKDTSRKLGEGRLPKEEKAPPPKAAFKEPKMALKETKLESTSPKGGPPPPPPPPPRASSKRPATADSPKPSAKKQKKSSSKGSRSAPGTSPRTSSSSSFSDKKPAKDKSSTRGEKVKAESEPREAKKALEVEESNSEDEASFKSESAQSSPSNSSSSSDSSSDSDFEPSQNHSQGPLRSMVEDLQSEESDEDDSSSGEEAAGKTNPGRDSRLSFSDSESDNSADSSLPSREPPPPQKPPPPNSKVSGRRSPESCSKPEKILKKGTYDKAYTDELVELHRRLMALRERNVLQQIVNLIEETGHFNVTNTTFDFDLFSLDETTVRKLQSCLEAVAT
Outline: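 MV4-11 cells treated 24 h at 37° C, 5% CO2 with 1000, 100 and 10 nM compound (0.1% DMSO final). MLLT1 quantified by automated capillary chemiluminescent immunodetection; band peak area expressed as % degradation relative to DMSO control.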

MV4-11 cells [1] = test: MV4-11 cellular proliferative assay, Assay Format A (CellTiter-Glo, 120 hours); conditions: Homo sapiens
Procedure: An MV4-11 proliferation assay was used to test the ability of compounds to reduce cell viability. MV4-11 cells (ATCC #CRL9591) were grown in IMDM medium (11510596, Gibco) supplemented with 10% fetal bovine serum (F7524, Gibco) and 1% Penicillin/Streptomycin (15140-122, Gibco) at 37° C. with 5% CO2. Cells were seeded in 384-well Elplasia plates (4447, Corning) at a density of 50 cells/well and treated with vehicle (DMSO) or compounds (10 serial semi-log dilutions, 30 μM as top concentration).
After 120 hours of treatment, cells were incubated for 10 min at RT with the CellTiter-Glo (CTG) reagent (G7571, Promega). Measurement of the luminescence signal was performed on a microplate reader (Ensight, PerkinElmer). CTG reagent measures the amount of ATP, which is directly proportional to the number of cells, to determine the number of viable cells in culture.
The data were analysed as follows:
where x is the measured raw signal value of a well, (cr) is the median of the measured signal values for the Central Reference (DMSO) wells on a plate, (sr) is the median of the measured signal values for the Scale Reference (reference compound) wells on a plate.
where the experimental set-up assumes the Hill parameters in certain ranges: S0~Central Reference (CR) from normalization (=Bottom), Sinf~Scale Reference (SR) from normalization (=Top), nHill~1, AC50~within the measured concentration range.

MV4-11 cells [2] = test: MV4-11 cellular proliferative assay, Assay Format B (CTG 2.0, 168 h); conditions: Homo sapiens, 168 h (7 days), CTG 2.0, read-out: IC50 (MV4-11 cellular proliferative assay, Assay format B)
Outline: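 MV4-11 cells seeded overnight in IMDM + 10% FBS, then exposed to 10-point, 3-fold dilutions from 1 uM or 100 nM top concentration (0.3% DMSO final) for 168 h at 37 °C. CTG 2.0 luminescence read; % viability vs DMSO control fitted by four-parameter logistic regression.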

SMILES | MLLT1% Degradation @ 0.01 μM (MLLT1) | MLLT1% Degradation @ 0.1 μM (MLLT1) | MLLT1% Degradation @ 1 μM (MLLT1) | IC50 (MV4-11 cells [1]) [nM] | IC50 (MV4-11 cells [2]) [nM]
CN1CCC[C@@H]1c1cc2cnc(NC(=O)c3ccc(CC4CCN(c5cccc6c5C(=O)N(C5CCC(=O)NC5=O)C6=O)CC4)cc3)cc2[nH]1 (stereo partly drawn) [Example 3, 4-((1-(2-(2,6-dioxopiperidin-3-yl)-1,3-dioxoisoindolin-4-yl)piperidin-4-yl)methyl)-N-(2-((R)-1-methylpyrrolidin-2-yl)-1H-pyrrolo[3,2-c]pyridin-6-yl)benzamide] | C (Category C: 25% ≤ C < 50% degradation) | A (Category A: A ≥ 75% degradation) | A (Category A: A ≥ 75% degradation) | ≤ 100 | 
CN1CCC[C@@H]1c1cc2cnc(NC(=O)c3ccc(CCC4CCN(c5cccc6c5C(=O)N(C5CCC(=O)NC5=O)C6=O)CC4)cc3)cc2[nH]1 (stereo partly drawn) [Example 4, 4-(2-(1-(2-(2,6-dioxopiperidin-3-yl)-1,3-dioxoisoindolin-4-yl)piperidin-4-yl)ethyl)-N-(2-((R)-1-methylpyrrolidin-2-yl)-1H-pyrrolo[3,2-c]pyridin-6-yl)benzamide] | B (Category B: 50% ≤ B < 75% degradation) | A (Category A: A ≥ 75% degradation) | A (Category A: A ≥ 75% degradation) | ≤ 100 | 
CN1CCC[C@@H]1c1[nH]c2cc(NC(=O)CCCCCCNc3cccc4c3C(=O)N(C3CCC(=O)NC3=O)C4=O)ncc2c1Cl (stereo partly drawn) [Example 33, N-{3-chloro-2-[(2R)-1-methylpyrrolidin-2-yl]-1H-pyrrolo[3,2-c]pyridin-6-yl}-7-{[2-(2,6-dioxopiperidin-3-yl)-1,3-dioxoisoindol-4-yl]amino}heptanamide] | B (Category B: 50% ≤ B < 75% degradation) | A (Category A: A ≥ 75% degradation) | A (Category A: A ≥ 75% degradation) | ≤ 100 | 
CN1CCC[C@@H]1c1cc2cnc(NC(=O)CCCC3CN(c4cccc5c4C(=O)N(C4CCC(=O)NC4=O)C5=O)C3)cc2[nH]1 (stereo partly drawn) [Example 48, 4-(1-(2-(2,6-dioxopiperidin-3-yl)-1,3-dioxoisoindolin-4-yl)azetidin-3-yl)-N-(2-((R)-1-methylpyrrolidin-2-yl)-1H-pyrrolo[3,2-c]pyridin-6-yl)butanamide] |  |  |  | ≤ 100 | 
CN1CCC[C@@H]1c1cc2cnc(NC(=O)c3cnc(N4CCC(C#Cc5cccc6c5CN(C5CCC(=O)NC5=O)C6=O)CC4)nc3)cc2[nH]1 (stereo partly drawn) [Example 65, 2-(4-((2-(2,6-dioxopiperidin-3-yl)-1-oxoisoindolin-4-yl)ethynyl)piperidin-1-yl)-N-(2-((R)-1-methylpyrrolidin-2-yl)-1H-pyrrolo[3,2-c]pyridin-6-yl)pyrimidine-5-carboxamide] | B (Category B: 50% ≤ B < 75% degradation) | B (Category B: 50% ≤ B < 75% degradation) | B (Category B: 50% ≤ B < 75% degradation) |  | ≤ 100
CN1CCC[C@@H]1c1cc2cnc(NC(=O)c3ccc(OCCCC#Cc4cccc5c4CN(C4CCC(=O)NC4=O)C5=O)nc3)cc2[nH]1 (stereo partly drawn) [Example 150, 6-((5-(2-(2,6-dioxopiperidin-3-yl)-1-oxoisoindolin-4-yl)pent-4-yn-1-yl)oxy)-N-(2-((R)-1-methylpyrrolidin-2-yl)-1H-pyrrolo[3,2-c]pyridin-6-yl)nicotinamide] | A (Category A: A ≥ 75% degradation) | A (Category A: A ≥ 75% degradation) | A (Category A: A ≥ 75% degradation) |  | ≤ 100
CN1CCC[C@@H]1c1cc2cnc(NC(=O)c3ccc(N4CCN(CC#Cc5cccc6c5CN(C5CCC(=O)NC5=O)C6=O)CC4)nc3)cc2[nH]1 (stereo partly drawn) [Example 6, 6-(4-(3-(2-(2,6-dioxopiperidin-3-yl)-1-oxoisoindolin-4-yl)prop-2-yn-1-yl)piperazin-1-yl)-N-(2-((R)-1-methylpyrrolidin-2-yl)-1H-pyrrolo[3,2-c]pyridin-6-yl)nicotinamide] | A (Category A: A ≥ 75% degradation) | A (Category A: A ≥ 75% degradation) | B (Category B: 50% ≤ B < 75% degradation) |  | ≤ 100
CN1CCC[C@@H]1c1cc2cnc(NC(=O)c3ccc(OCCN4CCN(c5cccc6c5CN(C5CCC(=O)NC5=O)C6=O)CC4)cc3)cc2[nH]1 (stereo partly drawn) [Example 142, 4-(2-(4-(2-(2,6-dioxopiperidin-3-yl)-1-oxoisoindolin-4-yl)piperazin-1-yl)ethoxy)-N-(2-((R)-1-methylpyrrolidin-2-yl)-1H-pyrrolo[3,2-c]pyridin-6-yl)benzamide] | A (Category A: A ≥ 75% degradation) | A (Category A: A ≥ 75% degradation) | A (Category A: A ≥ 75% degradation) |  | ≤ 100
CN1CCC[C@@H]1c1cc2cnc(NC(=O)c3ccc(CCCC#Cc4cc(F)cc5c4CN(C4CCC(=O)NC4=O)C5=O)cc3)cc2[nH]1 (stereo partly drawn) [Example 101, 4-(5-(2-(2,6-dioxopiperidin-3-yl)-6-fluoro-1-oxoisoindolin-4-yl)pent-4-yn-1-yl)-N-(2-((R)-1-methylpyrrolidin-2-yl)-1H-pyrrolo[3,2-c]pyridin-6-yl)benzamide] | A (Category A: A ≥ 75% degradation) | A (Category A: A ≥ 75% degradation) | A (Category A: A ≥ 75% degradation) |  | ≤ 100
CN1CCC[C@@H]1c1cc2cnc(NC(=O)c3ccc(N4CCC(OCC5CCN(c6cccc7c6CN(C6CCC(=O)NC6=O)C7=O)CC5)CC4)nc3)cc2[nH]1 (stereo partly drawn) [Example 147, 6-(4-((1-(2-(2,6-dioxopiperidin-3-yl)-1-oxoisoindolin-4-yl)piperidin-4-yl)methoxy)piperidin-1-yl)-N-(2-((R)-1-methylpyrrolidin-2-yl)-1H-pyrrolo[3,2-c]pyridin-6-yl)nicotinamide] | A (Category A: A ≥ 75% degradation) | A (Category A: A ≥ 75% degradation) | A (Category A: A ≥ 75% degradation) |  | ≤ 100
CN1CCC[C@@H]1c1cc2cnc(NC(=O)c3ccc(N4CCC(OCc5ccc(-c6cccc7c6CN(C6CCC(=O)NC6=O)C7=O)cc5)CC4)nc3)cc2[nH]1 (stereo partly drawn) [Example 109, 6-(4-((4-(2-(2,6-dioxopiperidin-3-yl)-1-oxoisoindolin-4-yl)benzyl)oxy)piperidin-1-yl)-N-(2-((R)-1-methylpyrrolidin-2-yl)-1H-pyrrolo[3,2-c]pyridin-6-yl)nicotinamide] | B (Category B: 50% ≤ B < 75% degradation) | A (Category A: A ≥ 75% degradation) | A (Category A: A ≥ 75% degradation) |  | ≤ 100
